Tested on: Canton-S flies
Experiment: Geotaxis maze assay of Drosophila
Assay type: in vivo, Drosophila melanogaster
Protocol: These strains and a standard laboratory wild-type strain (Canton-S, obtained from the Bloomington Drosophila Stock Center, Indiana University at Bloomington) were then tested in a geotaxis maze constructed according to the design of Hirsch (J. Comp. Physiol. Psychol. 52:304-308 (1959)) as modified by McMillan and McGuire (Behav. Genet. 22:557-573 (1992)), shown in FIG. 1. The geotaxis maze was fashioned from plexiglass and the maze chambers were hollowed out as semi-circular depressions in the slab, such that when the two slabs were bolted together a circular tube was formed in maze. This design thus made it possible to observe the entire time course of the assay. Additionally, this maze is easy to clean and standardize. For each strain, a geotaxis score was determined. In separate measurements, twenty to thirty flies of each strain were loaded into a starting tube on the left (see FIG. 1). The maze was set upright in front of a light source on the right, and, after turning on the light, each strain was scored according to the distribution of the flies in the nine collecting tubes on the right. A perfect score for positive geotaxis would be 1, for negative geotaxis, 9, and for an even distribution, 5. The geotaxis measurments were repeated 3-5 times for each strain (see Table 1). […]

OCCOCCN1CCN(C(c2ccccc2)c2ccc(Cl)cc2)CC1 (centres unmarked) [hydroxyzine]
Effect on geotactic behavior (in words) (Canton-S flies fed with the histamine receptor antagonist): Extreme negative geotaxis is induced
Geotaxis score (wild-type Canton-S flies fed for 2 hr on 20 mg/ml hydroxyzine, score scale 1 = positive geotaxis, 5 = even distribution, 9 = negative geotaxis, N=1 (15-25 flies), untreated Canton-S 5.53): 8.50
